These results are taken from patent publication US20090196833A1, “COMPOSITIONS COMPRISING TOPICAL DPD INHIBITORS AND METHODS OF USING SAME IN THE TREATMENT OF HAND-FOOT SYNDROME” (ADHEREX TECHNOLOGIES INC., priority 2008, published 2009).

Like-named read-outs stand apart in the source and are kept apart here.

Series [1] is described as follows: 5-FU pharmacokinetics in pigs with topical eniluracil (Example 6). To be noted: pig, plasma, 6 mg/kg, 5-FU 6 mg/kg bolus, read-out: 5-FU Half-Life, Mean (SD). It counts as in vivo. The protocol: (§1) This study was carried out to determine the plasma pharmacokinetics of eniluracil (EU) after topical administration and to evaluate the effect of topical eniluracil application on 5-FU pharmacokinetics, peripheral blood mononuclear cell (PBMC) dihydropyrimidine dehydrogenase (DPD) function, and levels of DPD activity in the skin in vivo. Eniluracil (0.005% and 0.01% w/w) formulated using Aquaphor® was applied topically (617 mg to a designated area) for 5 minutes every other day for 16 days starting on Day-2. 5-Fluorouracil was administered as a 6 mg/kg bolus injection on Day-3, Day 0 and Day 14. Samples were collected at predetermined time intervals to evaluate 5-fluorouracil pharmacokinetics, eniluracil pharmacokinetics, skin DPD activity and systemic DPD activity.
(§2) A baseline 5-FU pharmacokinetic study was conducted on Day-3 by collecting serial blood samples after 5-FU administration. […] The total ointment applied was […]. The area of application in the pig ([…]=0.0040 m^2) was selected based on feasibility and scale to the proposed human use using the following figures: the surface area of one palm and one sole combined in a human is 2% of the total body surface area, the average total body surface area in a pig is 0.40 m^2. Thus, in terms of total eniluracil in mg/m^2 applied to pigs was 0.154 for 0.01% and 0.077 for 0.005%. The duration of application was 5 minutes, which was determined based data obtained from a pilot study. In this study, higher doses of topical eniluracil (5 gms of 0.01%, 0.05% and 0.01% w/w) and placebo were applied on the skin and skin biopsies were collected after predefined time intervals. These samples were then analyzed for DPD activity.
(§3) Ointment exposure time was 5 minutes every other day for 16 days. Eniluracil treated animals also received 617 mg of placebo at a site different from the treatment site. Eniluracil pharmacokinetics were analyzed from the serial blood samples drawn on first day of the 5-FU and eniluracil treatment (Day 0) and on Day 14. In addition, eniluracil concentrations were evaluated in all samples obtained for 5-FU pharmacokinetics, as shown above. 5-FU pharmacokinetics were evaluated from 11 serial blood samples drawn after the IV bolus administration of 5-FU on Day-3, Day 0 and Day 14. On 5-FU treatment days, eniluracil administration was conducted first (5 min) followed by 5-FU at the 6 minute time point. Blood samples were collected for plasma EU analyses prior to topical administration and at 2 min and 5 min (end of topical exposure). Blood samples were collected for both EU and 5-FU analyses immediately prior to 5-FU administration and at the following times from the IV bolus: 2, 5, 10, 15, 30, 45, 60, 90 120, and 180 min. Determinations of eniluracil and 5-fluorouracil plasma pharmacokinetics were made. The effect on the local DPD activity and the effect of topical eniluracil on systemic DPD activity were assessed by collecting skin biopsies from both the treatment site and the placebo site, and peripheral blood mononuclear cells (PBMCs) on day-2 and on day 12. DPD activity in PBMCs was also measured on Day 17 and Day 19, to investigate the time to recovery if there was any systemic inhibition of DPD.
In terms of statistical considerations, the study was designed with 4 pigs to a treatment group in order to have 80% power for observation of at least a 40% difference in 5-FU systemic exposure between measurements conducted on day-3 (no eniluracil) to day 14 (on eniluracil every other day since day-2) at each of the two dosing levels (4 animals per dose level). These evaluations were conducted using matched, paired T Tests and Wilcoxon tests. In addition, day 14 data were compared between the treatment vs. control groups using the Kiruskal-Wallis test. […]

For series [2], the system named is EpiDerm™ skin model (normal, human-derived epidermal keratinocytes (NHEK)). Description: EpiDerm skin model MTT conversion assay (ET50, dermal irritation). It counts as cell-based. The note with it: for ET50: exposure times 8, 20, 24 hours. The source says: The EpiDerm™ skin model system (MatTek) was used to assess the potential dermal irritation of eniluracil alone or its formulation. This system consists of normal, human-derived epidermal keratinocytes (NHEK) which have been cultured to form a multilayered, highly differentiated model of the human epidermis. […] The EpiDerm™ system is mitotically and metabolically active. Markers of mature epidermis-specific differentiation such as pro-filaggrin, the K1/K10 cytokeratin pair, involucrin, and type I epidermal transglutaminase have been localized in the model. […] Eniluracil was prepared and administered to the test system at the three final concentrations of 1000 μM, 500 μM, and 100 μM, and tested at three exposure times of 8, 20, and 24 hours. The DMSO solvent control was tested at exposure times of 8 and 24 hours. The negative control was tested at exposure times of 4 and 24 hours, and the positive control was tested at exposure times of 4 and 8 hours. […] Hydrochloric acid in an amount equivalent to the sodium hydroxide was added to neutralize the ointment. The exposure time control was also exposed in duplicate for 4 and 24 hours. Table 2 below summarizes the ET50 results of the EpiDerm™ assay for the test articles and the positive control, using the negative control results to determine the relative viability.
A general note: Tetrazolium dyes change colour on reduction, which living cells bring about.

Series [3] concerns the target T1, dihydropyrimidine dehydrogenase (DPD) (Sus scrofa, UniProt Q28943).
T1 construct: the supernatant (cytosolic fraction) was collected for use as the enzyme source; from tissue; host or cells: pig skin biopsies after topical dosing in vivo
T1 sequence (Q28943 4-1025): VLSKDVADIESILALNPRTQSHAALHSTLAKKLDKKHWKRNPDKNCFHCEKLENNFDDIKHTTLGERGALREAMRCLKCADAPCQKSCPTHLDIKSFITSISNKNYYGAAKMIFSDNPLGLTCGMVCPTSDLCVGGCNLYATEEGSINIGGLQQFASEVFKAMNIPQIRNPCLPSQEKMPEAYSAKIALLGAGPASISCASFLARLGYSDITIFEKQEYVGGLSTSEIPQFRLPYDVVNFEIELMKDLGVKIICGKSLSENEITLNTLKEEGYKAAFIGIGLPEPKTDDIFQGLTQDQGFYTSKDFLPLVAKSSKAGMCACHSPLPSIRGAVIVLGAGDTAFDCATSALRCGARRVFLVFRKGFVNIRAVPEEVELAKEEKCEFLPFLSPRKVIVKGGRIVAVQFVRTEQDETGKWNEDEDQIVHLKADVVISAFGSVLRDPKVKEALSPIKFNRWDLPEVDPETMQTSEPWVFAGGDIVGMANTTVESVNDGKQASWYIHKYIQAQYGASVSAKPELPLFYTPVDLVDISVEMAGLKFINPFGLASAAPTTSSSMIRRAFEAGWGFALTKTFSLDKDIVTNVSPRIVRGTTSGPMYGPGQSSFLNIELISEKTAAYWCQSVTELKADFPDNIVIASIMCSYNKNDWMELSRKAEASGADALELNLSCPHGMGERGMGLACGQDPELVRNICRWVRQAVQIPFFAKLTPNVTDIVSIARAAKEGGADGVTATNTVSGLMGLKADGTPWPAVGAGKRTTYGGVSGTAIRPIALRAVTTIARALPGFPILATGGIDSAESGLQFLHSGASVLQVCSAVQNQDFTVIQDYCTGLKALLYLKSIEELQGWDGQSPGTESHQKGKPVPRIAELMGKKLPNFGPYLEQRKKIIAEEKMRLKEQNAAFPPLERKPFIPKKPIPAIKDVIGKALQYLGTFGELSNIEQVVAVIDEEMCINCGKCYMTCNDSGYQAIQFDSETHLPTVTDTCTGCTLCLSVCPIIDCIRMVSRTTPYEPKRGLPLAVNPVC
Description: Skin DPD activity in pigs with topical eniluracil (Example 6). The note with it: short term topical application at 0.005% or 0.01% w/w. It counts as in vivo. As to the method: as §1, with “Samples were collected at predetermined time intervals to evaluate 5-fluorouracil pharmacokinetics, eniluracil pharmacokinetics, skin DPD activity and systemic DPD activity.” left out
A baseline 5-FU pharmacokinetic study was conducted on Day-3 by collecting serial blood samples after 5-FU administration. […] The duration of application was 5 minutes, which was determined based data obtained from a pilot study. […] These samples were then analyzed for DPD activity.
Ointment exposure time was 5 minutes every other day for 16 days. […] Eniluracil pharmacokinetics were analyzed from the serial blood samples drawn on first day of the 5-FU and eniluracil treatment (Day 0) and on Day 14. In addition, eniluracil concentrations were evaluated in all samples obtained for 5-FU pharmacokinetics, as shown above. 5-FU pharmacokinetics were evaluated from 11 serial blood samples drawn after the IV bolus administration of 5-FU on Day-3, Day 0 and Day 14. […]

Series [4] in a line: pH of test article in the EpiDerm studies. It counts as physicochemical.
Series [5] can be described thus: Plasma eniluracil after topical administration in pigs (Example 6). It counts as in vivo. As to the method: as §1, §2
as §3, with “On 5-FU treatment days, eniluracil administration was conducted first (5 min) followed by 5-FU at the 6 minute time point. Blood samples were collected for plasma EU analyses prior to topical administration and at 2 min and 5 min (end of topical exposure). Blood samples were collected for both EU and 5-FU analyses immediately prior to 5-FU administration and at the following times from the IV bolus: 2, 5, 10, 15, 30, 45, 60, 90 120, and 180 min. Determinations of eniluracil and 5-fluorouracil plasma pharmacokinetics were made.” left out

For series [6] the following is noted: capecitabine at labeled dose; cited from earlier work.
Series [7] relates to Thymidine phosphorylase (TP). Nature of the series: Thymidine phosphorylase (TP) enzyme activity in skin sample supernatant. The note with it: concentration of 100 uM; 200 μM capecitabine substrate.
Description: Skin samples were suspended in 600 μl of homogenization buffer containing 20 mM potassium phosphate (pH 8.0), 1.5 mM dithiothreitol (DTT), and 5 ul/ml protease inhibitor (Sigma). Samples were homogenized and centrifuged at 36,000 rpm for one hour at 4° C. The supernatants were collected and protein concentration was measured using the Bradford assay (Biorad). Thymidine phosporylase (TP) enzyme activity was determined in an assay mixture containing 20 mM potassium phosphate (pH 8.0), 1 mM DTT, 1 mM EDTA, 2 μM 6-^3H-Capecitabine (Moravek Biochemicals, Brea, Calif.), 200 μM unlabeled Capecitabine, varying concentrations of the inhibitor (100 μM, 10 μM, or 1 μM), and 80 μl of protein (6.0 mg/ml) in a final volume of 160 μl. Reactions were incubated at 37° C. for 30 minutes and then terminated by boiling for four minutes. To facilitate protein precipitation, the reactions were incubated at −80° C. for at least 20 minutes, thawed, and then centrifuged for 10 minutes at 14000 rpm at 4° C. The resulting supernatants were filtered through a 0.2 μm Acrodisc filter (VWR International, West Chester, Pa.) and samples were injected in duplicate (60 μl each) onto a HPLC (Hewlett-Packard 1050, Houston, Tex.) equipped with an automatic injector and on-line radioisotope flow detector (Radiomatic FLO-ONE Beta, Packard Instrument, Meriden, Conn.). […]

A word on the half-life: it is the time needed for the level to fall by half in the phase considered. Turning to `O=c1[nH]cc(F)c(=O)[nH]1` [5-FU, 5-Fluorouracil], the half-life in series [1] (iv, Both Doses of eniluracil ointment, Day 0) came to 10.1 min; in series [1] (iv, Both Doses of eniluracil ointment, Day 14) it was 9.77 min; in series [1] (iv, Controls (no ointment), Day 0) it was 7.56 min; in series [1] (iv, Controls (no ointment), Day 14), 9.74 min; in series [1] (iv, Controls (no ointment), Day −3), 5.51 min; in series [1] (iv, eniluracil ointment Dose 0.005%, Day 0), 6.98 min. Moreover, the half-life in series [1] (iv, eniluracil ointment Dose 0.005%, Day 14) stood at 6.7 min; in series [1] (iv, eniluracil ointment Dose 0.01%, Day 0), 13.2 min; in series [1] (iv, eniluracil ointment Dose 0.01%, Day 14), 12.8 min; in series [1] (topical or ocular, Both Doses of eniluracil ointment, Day −3 (no topical eniluracil)), 5.11 min; in series [1] (topical or ocular, eniluracil ointment Dose 0.005% group, Day −3 (no topical eniluracil)) it was 5.44 min; in series [1] (topical or ocular, eniluracil ointment Dose 0.01% group, Day −3 (no topical eniluracil)), 4.78 min.
As for `C#Cc1c[nH]c(=O)[nH]c1=O` [Eniluracil, eniluracil], the “tolerability in EpiDerm skin model” value in series [2] (1000, 500 and 100 μM, topical exposures of up to 24 hours) is listed as “well-tolerated”. The ET50 in series [2] (eniluracil 100 uM), in series [2] (eniluracil 500 uM) and in series [2] (eniluracil 1000 uM) was above 24 h each time. The “effect on skin DPD activity” value in series [3] is “temporary and recoverable inhibition”. Moreover, the pH in series [4] (eniluracil 100 uM), in series [4] (eniluracil 500 uM) and in series [4] (eniluracil 1000 uM) was 5 each time. Moreover, the “plasma EU concentration” value in series [5] (221 of the 224 samples, limit of quantitation, topical 0.005% or 0.01% w/w, 5 minutes every other day) was at most 11 ng/mL; in series [5] (pig 5303, EU dose 0.005%, day 14, 6 min), 12.81 ng/mL; in series [5] (pig 5303, EU dose 0.005%, day 14, 11 min), 11.52 ng/mL; in series [5] (pig 5303, EU dose 0.005%, day 14, 15 min) it was 11.07 ng/mL.
As to `CCCCCOC(=O)Nc1nc(=O)n([C@@H]2O[C@H](C)[C@@H](O)[C@H]2O)cc1F` [capecitabine, 5′-deoxy-5-fluoro-N-[(pentyloxy)carbonyl]-cytidine], in series [6], the “reported incidence of HFS, all grades” value was “approximately 60%” and the “reported incidence of HFS, high grade” value is on record as around 17%.
For the compound `Cc1cn([C@H]2C[C@H](O)[C@@H](CO)O2)c(=O)[nH]c1=O` [thymidine], the “inhibition of TP activity” value in series [7] is listed as “about 50%”.
Take `O=c1ccn([C@@H]2O[C@H](CO)[C@@H](O)[C@H]2O)c(=O)[nH]1` [uridine]: the “inhibition of TP activity” value in series [7] is reported as “about 50%”.
